Consider six molecules from US20030143215A1, “Carbonyl stress-ameliorating agents” (priority 1999, published 2003).

The conditions of assay [1]: in vitro; Miyata T., J. Am. Soc. Nephrol. 11: 1719-1725, 2000; cited from earlier work.
Assay [2] is described as follows: Incubation of sera with thiol compounds, production of AGE. The following applies: sera from a normal person and patients with diabetes mellitus; a long period was required. An excerpt: As described above, a decrease in concentration of redox coenzymes, such as GSH and NAD (P), is suspected to be the cause of AGE formation because of a decreased elimination of carbonyl compounds. […] Based on this theory, the present inventors tried to directly administer thiol compounds, such as GSH and cystein.

For assay [3] the following is noted: 400 μM methylglyoxal, 0-8 mM glutathione, PBS(-) pH7.4, 37° C., 0-24 hours; FIG. 1.
Method: The solutions were incubated at 37° C. Samples were taken after 0, 2, 4, 8, and 24 hours; and 40 μl of 2 M perchlorate, 40 μl of 1% o-phenylenediamine, and 100 μl of 200 μM glyoxal were added to 100 μl of each sample. The mixtures were stirred, and then incubated at 25° C. for one hour.
Assay [4] can be described thus: Dicarbonyl compound elimination in mixed solutions containing three dicarbonyl compounds. To be noted: FIG. 4. Type of assay: biochemical. On the procedure:
PBS(-) solutions (pH7. 4) were prepared, whose concentrations of glyoxal, methylglyoxal, and 3-deoxyglucosone were all 200 μM, glutathione concentration were 0, 0.5, 1, or 5 mM, and glyoxalase I concentration were 0, 0.05, 0.1, 0.5, 1, or 2 unit/ml.

Assay [5] in a line: Elimination of methylglyoxal from methylglyoxal solutions in the presence of glutathione and glyoxalase I. Type of assay: biochemical. To be noted: 400 μM methylglyoxal, 4 mM glutathione, glyoxalase I 8-80 unit/ml, 37° C., 1 hour; FIG. 2. The protocol:
PBS(-) solutions were prepared, whose methylglyoxal concentration were 400 μM, glutathione concentration 4 mM, and the concentration of an enzyme having glyoxalase I activity were 8, 16, 40, and 80 unit/ml, respectively. The solutions were incubated at 37° C. A commercially available enzyme (Sigma) derived from yeast was used as the glyoxalase I. Samples were taken after 1 hour, and then methylglyoxal was quantified by the same method as in Example 1.

A short description of assay [6]: Dicarbonyl compound elimination in solutions separately containing each dicarbonyl compound. The assay is classed as biochemical. The following applies: 100 μM dicarbonyl, glutathione 0-10 mM, glyoxalase I 0-10 unit/ml, 37° C., 1 hour; FIG. 5. The protocol:
PBS(-) solutions (pH 7.4) were prepared, whose glyoxal concentration were 100 μM, glutathione concentration 0, 0.1, 1, or 10 mM, and glyoxalase I concentration 0, 0.01, 0.1, 1, or 10 unit/ml. […] The same method was used for methylglyoxal and 3-deoxyglucosone in place of glyoxal.

On to `N=C(N)NN` [aminoguanidine], for which the “trapping of carbonyl compounds methylglyoxal and glyoxal” value in assay [1] is reported as “efficiently trap carbonyl compounds”.

As for `CCCCNC(=N)NC(=N)N` [buformin], in assay [1], the “trapping of carbonyl compounds methylglyoxal and glyoxal” value is “efficiently trap carbonyl compounds”.

Turning to `N[C@@H](CS)C(=O)O` [cystein, reference compound], the “production of AGE in sera” value in assay [2] was “suppressed the production of AGE”. In the case of `N[C@@H](CCC(=O)N[C@@H](CS)C(=O)NCC(=O)O)C(=O)O` [glutathione], the “methylglyoxal trapping (residual rate of methylglyoxal)” value in assay [3] is “trapped by glutathione depending on the concentration of glutathione and incubation time”. Besides, the “production of AGE in sera” value in assay [2] is given as “suppressed the production of AGE”. Regarding `CN(C)C(=N)N=C(N)N` [metformin], the “trapping of carbonyl compounds methylglyoxal and glyoxal” value in assay [1] was “efficiently trap carbonyl compounds”.

B1: glyoxalase I: commercially available enzyme (Sigma) derived from yeast, lactoyl GSH lyase (EC. 4.4.1.5) (protein, UniProt P50107 1-326, looked up)
Glyoxalase I: MSTDSTRYPIQIEKASNDPTLLLNHTCLRVKDPARTVKFYTEHFGMKLLSRKDFEEAKFSLYFLSFPKDDIPKNKNGEPDVFSAHGVLELTHNWGTEKNPDYKINNGNEEPHRGFGHICFSVSDINKTCEELESQGVKFKKRLSEGRQKDIAFALGPDGYWIELITYSREGQEYPKGSVGNKFNHTMIRIKNPTRSLEFYQNVLGMKLLRTSEHESAKFTLYFLGYGVPKTDSVFSCESVLELTHNWGTENDPNFHYHNGNSEPQGYGHICISCDDAGALCKEIEVKYGDKIQWSPKFNQGRMKNIAFLKDPDGYSIEVVPHGLIA
Take B1: the “concentrations of dicarbonyl compounds in mixed solution” value in assay [4] (200 μM each dicarbonyl, glutathione 0-5 mM, glyoxalase I 0-2 unit/ml, 37° C., 1 hour) was “Decrease in the concentrations of dicarbonyl compounds was observed”. Moreover, the “elimination of 3-deoxyglucosone in the mixed solution of three dicarbonyl compounds” value in assay [4] (coexistence of methylglyoxal and glyoxal, 200 μM each) is listed as “decreased”. Further, the methylglyoxal eliminated result in assay [5] is listed as “Approximately 99%”. Further, the “concentrations of dicarbonyl compounds in solutions containing one dicarbonyl compound” value in assay [6] is “concentrations of dicarbonyl compounds decreased”.
